Source: patent EP4467137A1, “TREATMENT OF FRONTOTEMPORAL DEMENTIA OR FRONTOTEMPORAL LOBAR DEMENTIA” (Universidad Autónoma de Madrid, priority 2023, dated 2024)

Columns and labels:
[1] = In vitro blood-brain barrier permeation assay (PAMPA-BBB); type: in vitro ADME
Source text: The in vitro blood-brain barrier permeation assay (PAMPA-BBB) was used for predicting the brain penetration of compounds, following a described method [Herrera-Arozamena, Clara et al. "Resveratrol-Based MTDLs to Stimulate Defensive and Regenerative Pathways and Block Early Events in Neurodegenerative Cascades." Journal of medicinal chemistry vol. 65,6 (2022): 4727-4751. doi:10.1021/acs.jmedchem.1c01883]. The results are given as the mean ± SD. In each experiment, 11 quality control standards of known BBB permeability were included to validate the analysis set.

[2] = Cell viability/toxicity by the MTT method; type: cell-based; conditions: human, effect of the compound per se on AREc332 cells
Source text: Based on the results obtained (Table 2), Compound 1 was selected for further in vitro and in vivo studies as it was endowed with the best anti-neuroinflammatory activity. Table 2: Comparative in vitro results. Cell viability/toxicity: effect of the compound per se on cell viability of […] cells measured with the MTT method. Anti-neuroinflammatory effect: % Reduction of nitrites in primary rat glial cultures. PAMPA-BBB: In vitro blood-brain barrier permeation assay, permeation rate Pe (10-6 cm.s-1). NRF2, CD (µM): Concentration of compound that doubles de activation of NRF2. ORAC: Oxygen radical absorbance capacity. LOX-5: lipoxygenase-5.

[3] = system: mouse cytokines, chemokines, and growth factors; assay: LPS in vivo model: multiplex assay of brain cytokines and chemokines (Luminex xMAP); conditions: 20 mg·kg^-1 i.p.
Protocol: • Figure 1. Compound 1 reduces the inflammatory response against LPS in vitro. (A) Nitric oxide (NO) production in BV2 cells detected by DAF 24 h after LPS exposure and normalized by cell viability measured by MTT (n = 9). (B) qRT-PCR of TNFα (n = 9) in BV2 cells after 24 h LPS exposure. Sulforaphane (Sfn) was used as a positive control. […] Compound 1 decreases the inflammatory process 4 and 24 hours after LPS administration in vivo. Compound 1 (20 mg·kg^-1) daily was injected i.p. four days before the i.p. LPS (0.5 mg·kg^-1) administration. […] Compound 1 ameliorates the resolution of the inflammatory process triggered by LPS. Multiplex assay of cytokines 4 h (A) and 24 h (B) after the proinflammatory stimuli (n = 5). […] Compound 1 reverts brain microgliosis triggered by LPS. Representative images of brain microglia 4 h and 24 h after the proinflammatory stimuli (A). Mean intensity of IBA-1 per cell 4 h (n = 10) and 24 h (n = 7, except n = 6 LPS + Compound 1) after LPS injection (B). […] Sub-chronical Compound 1 administration improves behavioural parameters in LPS treated mice. Compound 1 (20 mg·kg^-1) was injected once a day via i.p. four days before the i.p. LPS (0.5 mg·kg^-1) administration, thereafter behavioural tests were conducted. (A) Mice weight change (T0 and T24: saline n = 17, LPS n = 17, LPS + Compound 1 n = 19, T4 and T8 saline n = 8, LPS n = 7, LPS + Compound 1 n = 8). (B) Locomotion activity measured by line crossings of an imaginary grid. (C) Scheme of NOR test. (D) Discrimination index (DI) of the mice studied: saline (n = 16), LPS (n = 9) and LPS + Compound 1 (n = 13). […] Compound 1 reduces hyperphosphorylated tau species and tau seeding in vitro. Compound 1 reduces hyperphosphorylated tau levels (AT8) in primary neuronal cultures of mice after 8 days of AVV-hTauP301L treatment. Dimethyl fumarate was used as a positive control (DMF). (A) Representative images, AT8 is shown in green and Map2, marker of neurons, is shown in white. […] Compound 1 reduced tau seeding in HEK-293 tau FRET biosensor measured by flow cytometer (C). Tg4510 mouse brain homogenate was used as aggregant stimuli. […] Data represent mean ± SEM. • Figure 7. Compound 1 reduces hyperphosphorylated tau species in adult mice with hTauP301L tauopathy after 35 days oral administration (50 mg/kg/day). (A). Representative images of hyperphosphorylated tau intensity measured by AT8 and AT180 antibodies in three different regions of the hippocampus (GD, CA3 and CA1) (n = 11-12). (B) Quantification AT8 intensity, normalized to CA3 intensity of Sham animals. (C) Quantification of AT180 intensity, normalized to CA3 intensity of Sham animals (n = 9-12). […] Compound 1 reduces insoluble forms of hyperphosphorylated tau species in adult mice with hTauP301L tauopathy after 35 days oral administration (50 mg/kg/day). (A). Representative images of WB against AT8 and (B) AT180 antibodies of sarkosyl solule and insoluble protein species. Quantification of sarkosyl soluble (n = 10) (C) and insoluble species (D) using AT8 antibody (n = 10). Quantification of sarkosyl soluble (n = 10) (E) and insoluble species (F) using AT180 antibody (n = 10). […] Compound 1 prevents cognitive decline in spatial memory behavioural paradigms in adult mice with hTauP301L tauopathy after 35 days oral administration (20 mg/kg or 50 mg/kg/day). (A) Representation of T-maze alternation test and (B) Object Location test (OLT). (C) Average percentage of success in seven independent attempts (n = 14-19). (D) Discrimination index in the OLT assay (AAV-eGFP, n = 15; AAV-hTau, n = 10; AAV-hTau + Compound 1 at 20 mg/kg, n = 5; AAV-hTau + Compound 1 at 50 mg/kg, n = 8). […] Compound 1 reduces hyperphosphorylated tau species and improves cognitive behaviour in aged (16-18 months old) mice with hTauP301L tauopathy after 35 days oral administration (50 mg/kg/day). (A). Representative images of hyperphosphorylated tau intensity measured by AT8 and AT180 antibodies in three different regions of the hippocampus (GD, CA3 and CA1) (n = 12). […]

**Q.** What does the source list for `COc1ccc2c(c1)CC(c1c[nH]c3ccc(OC)cc13)N2` (centres unmarked) [Compound 1, 5-Methoxy-3-(5-methoxyindolin-2-yl)-1H-indole]?
**A.** PAMPA-BBB predicted brain penetration [1]: cns+; Papp ([1]; PAMPA, permeation rate, mean ± SD, read-out: PAMPA-BBB Pe): 129 ± 9 nm/s; CC50 [2]: > 30 µM; IP10 ([3]; 4 and 24 h after LPS): decreased significantly; KC ([3]; 4 and 24 h after LPS): decreased significantly; MIP2 ([3]; 4 and 24 h after LPS): decreased significantly; RANTES ([3]; 4 and 24 h after LPS): decreased significantly; IL-6 in brain ([3]; 4 h after LPS): marked reduction; IL-7 in brain ([3]; 4 h after LPS): marked reduction; MCP-1 ([3]; 4 h after LPS): decreased significantly; Additional cytokines (Figure 3) ([3]; 4 h and 24 h after LPS, most of them): decreased with compound treatment; IL-6 in brain ([3]; 24 h after LPS): restored to basal conditions; IL-7 in brain ([3]; 24 h after LPS): restored to basal conditions; granulocyte-colony stimulating factor (G-CSF) brain levels ([3]; after LPS): significantly reduced
